Reference: patent US20250205253A1, “PHARMACEUTICAL COMPOSITION FOR PREVENTING OR TREATING BENIGN PROSTATIC HYPERPLASIA” (University-Industry Cooperation Group of Kyung Hee …, priority 2023, published 2025)

How the values were obtained:
[1] = test system: siRNA-transfected RWPE-1 cells; test: siRNA transfection (NLRP3 or AR knockdown) with qRT-PCR in RWPE-1 cells; type: cell-based, human; details: for AR level (mRNA) in NLRP3 siRNA-transfected cells / NLRP3 level (mRNA) in AR siRNA-transfected cells: DHT stimulation, with or without 100 μM MitoQ; for AR level (mRNA) in NLRP3 siRNA-transfected cells: FIG. 3D; for NLRP3 level (mRNA) in AR siRNA-transfected cells: FIG. 3E
Experimental: (§1) Total RNA was isolated using Easy-Blue® reagent (iNtRON Biotechnology, Inc., Gyeonggi, Korea) and transcribed into complementary DNA (cDNA) according to the manufacturer's instructions. Oligonucleotide primers (Table 1) were purchased from Bioneer Corporation (Daejeon, Korea). qRT-PCR was performed according to the known method.
The RWPE-1 cells were transfected with siRNA (Bioneer Corporation) or pmaxGFP™ vector using a 4D-Nucleofector™ system (Lonza, Basel, Switzerland). The following siRNA nucleotide sequences were used: NLRP3 siRNA, […]=tt(1-AS) (SEQ ID NO.: 39) and […]=tt (1-AA) (SEQ ID NO.: 40) and AR siRNA, […]=tt (6-AS) (forward) (SEQ ID NO.: 41) and […]=tt (6-AA) (reverse) (SEQ ID NO.: 42). After four hours of incubation, the cells were treated in the presence or absence of MitoQ 100 μM. The effect of NLRP3 or AR knockdown was detected using qRT-PCR.

[2] = test system: testosterone-induced BPH rat model; test: Serum DHT and testosterone measurement (ELISA) in rats with BPH; type: in vivo
Text: (§2) Six-week-old male Sprague-Dawley rats (n=40; 200 +20 g) were purchased from Daehan Biolink Co. (Daejeon, Korea). The animals were randomly allocated, four rats in each cage, and housed in accordance with the guidelines for the care and use of laboratory animals adopted and promulgated by Sangji University according to the requirements established by the National Institutes of Health. All experimental protocols were approved by the Institutional Animal Care and Use Committee (IACUC) of Sangji University before the initiation of the study (IACUC Animal Approval Protocol #2018-18). The rats were acclimatized to laboratory conditions for one week before initiating the experiment.
(§3) The rats in the control group were incised and sutured without removing the testicles following anesthesia using zoletil 50 (intraperitoneal injection, 10 mg/kg). […] Twenty-four hours after the final administration, all rats were euthanized following anesthesia with zoletil 50 (i.p., 20 mg/kg). Blood samples were drawn through cardiac puncture, and serum was obtained via centrifugation and stored at −80° C.
The serum DHT and testosterone levels were quantified using commercial ELISA kits (Cusabio, TX, USA). The assays were performed according to the manufacturer's instructions.

[3] = test system: testosterone-induced BPH rat model; test: Immunofluorescence (8-OHdG, NLRP3) of rat prostate tissue; type: in vivo
Experimental: After deparaffinization and rehydration, rat prostate tissue slides were incubated with anti-mouse 8-OHdG antibodies or anti-rabbit NLRP3 antibodies and visualized with FITC-conjugated anti-mouse and TRITC-conjugated anti-rabbit secondary antibodies, respectively.
The slides were mounted and detected using a Nikon X-Cite-Series 120 Q microscope (Nikon, Japan). The exposure parameters were the same for each sample.
as §2
(§4) The rats in the control group were incised and sutured without removing the testicles following anesthesia using zoletil 50 (intraperitoneal injection, 10 mg/kg). […] Twenty-four hours after the final administration, all rats were euthanized following anesthesia with zoletil 50 (i.p., 20 mg/kg). […]

[4] = test system: DHT-stimulated RWPE-1 cells; test: ATPase assay in DHT-stimulated RWPE-1 cells; type: cell-based, human; details: DHT-stimulated RWPE-1, MitoQ 25, 50, 100 μM, 24 h; FIG. 2E
[5] = test system: testosterone-induced BPH rat model; test: PCNA IHC and qRT-PCR in prostate of rats with BPH; type: in vivo
Experimental: as §1, §2, §4

[6] = test system: testosterone-induced BPH rat model; test: ROS assay on cells from rat prostate tissue; type: in vivo; details: dose-dependent, MitoQ 5 and 25 mg/kg/day; FIG. 5C
Text: as §2, §3
After the male rats were euthanized, the prostate tissues were excised and treated with type I collagenase (Thermo Fisher Scientific, MA, USA) to isolate the cells. […] The cells were incubated for 30 minutes at 37° C. and detected using a Muse® Cell Analyzer (Merck, Darmstadt, Germany).

[7] = test system: testosterone-induced BPH rat model; test: qRT-PCR mRNA level in prostate of rats with BPH; type: in vivo
Experimental: as §1, §2, §3

[8] = test system: DHT-stimulated RWPE-1 cells; test: Western blot analysis in DHT-stimulated RWPE-1 cells; type: cell-based, human; details: DHT-stimulated RWPE-1, MitoQ 25, 50, 100 μM
Experimental: (§5) The RWPE-1 cells were cultured in a keratinocyte serum-free medium supplemented with 0.05 mg/mL bovine pituitary extract, 5 ng/mL human recombinant epidermal growth factor, and antibiotic-antimycotic solution (Gibco®, Big Cabin, OK, USA). The cells were cultured in a humidified environment at 37° C. and 5% CO2. The cells were cultured in a serum-free medium to block the effects of autocrine androgens.
(§6) Total protein was extracted from the RWPE-1 cells and rat prostate tissues, and a western blot analysis was performed. An antibody against AR (Cat. No. sc-7305) was purchased from Santa Cruz Biotechnology, Inc. (TX, USA). Boster Biological Technology (CA, USA) provided an antibody against a prostate-specific antigen (PSA; Cat. No. PB9259). An antibody against caspase-3 (Cat. No. #9661) was purchased from Cell Signaling Technology. Novus Biologicals (CO, USA) provided an antibody against NLRP3 (Cat. No. NBP2-12446). An antibody against IL-1β (Cat. No. 2105) was purchased from Abcam (Cambridge, UK).

[9] = test system: DHT-stimulated RWPE-1 cells; test: Immunofluorescence (8OHdG, NLRP3, AR) in DHT-stimulated RWPE-1 cells; type: cell-based, human; details: DHT-stimulated RWPE-1, MitoQ 25, 50, 100 μM
Experimental: as §5
Thereafter, the cells were washed and incubated with fluorescein isothiocyanate (FITC)-conjugated anti-mouse or tetramethylrhodamine (TRITC)-conjugated anti-rabbit secondary antibodies. Nuclei were stained with 4′,6-diamidino-2-phenylindole (Life Technologies). Images were captured using an optical microscope (ECLIPSE Ni-U, Nikon, Tokyo, Japan).

[10] = test system: testosterone-induced BPH rat model; test: Histological analysis (H&E) of prostate tissue of rats with BPH; type: in vivo; details: MitoQ 5, 25 mg/kg/day; Saw 100 mg/kg/day p.o.; FIGS. 4C, 4D
Text: as §2, §3
Prostate tissues from each group were fixed in 4% formalin and embedded in paraffin. The tissues were cut into 4-μm sections. […] The thickness of the epithelium in the prostate tissues was measured using the Leica Application Suite software (LAS ver. 3.3.0, Leica Microsystems, Inc., Buffalo Grove, IL, USA).

RWPE-1 cells = test: CCK-8 assay, viability of MitoQ-treated RWPE-1 cells; type: cell-based, human; details: without DHT, 24 h, FIG. 1B
Experimental: The normal human prostate epithelial cell line, RWPE-1, was obtained from the American Type Culture Collection (Manassas, VA, USA).
as §5
(§7) The cell viability and proliferation were measured using the Cell Counting Kit-8 (CCK-8, Dojindo Molecular Technologies, Inc., D.C., USA). The RWPE-1 cells were plated to 96-well plates (1×10^5 cells/well) and incubated for 24 h. […] After the treatment, the CCK-8 solution was added to each well and incubated for four hours. The number of viable cells was monitored by measuring absorbance at 450 nm using an Epoch microplate reader (Biotek, Winooski, VT, USA).

[11] = test system: testosterone-induced BPH rat model; test: Western blot of prostate tissue of rats with BPH; type: in vivo
Experimental: as §6, §2, §3

[12] = test system: DHT-stimulated RWPE-1 cells; test: CCK-8 assay, RWPE-1 cell proliferation under DHT stimulation; type: cell-based, human; details: 10 nM DHT, 24 h, FIG. 1C
Experimental: as §5, §7

[13] = test system: DHT-stimulated RWPE-1 cells; test: ATP determination assay in DHT-stimulated RWPE-1 cells; type: cell-based, human; details: DHT-stimulated RWPE-1, MitoQ 25, 50, 100 μM, dose-dependent; FIG. 2F
[14] = test system: DHT-stimulated RWPE-1 cells; test: Mitochondrial activity and mtROS levels (MitoTracker, MitoSOX); type: cell-based, human; details: DHT-stimulated RWPE-1, 100 μM MitoQ, 24 h; FIG. 1F
[15] = test system: testosterone-induced BPH rat model; test: Testosterone-induced BPH rat model, prostate size and weight; type: in vivo
Text: as §2, §3

AR (PDB ID: 2AMA) = target: T1, AR (PDB ID: 2AMA) (Homo sapiens, UniProt P10275); test: Docking simulation (AutoDock Vina v1.1.2) on AR
T1 sequence (P10275 664-920 limits assumed): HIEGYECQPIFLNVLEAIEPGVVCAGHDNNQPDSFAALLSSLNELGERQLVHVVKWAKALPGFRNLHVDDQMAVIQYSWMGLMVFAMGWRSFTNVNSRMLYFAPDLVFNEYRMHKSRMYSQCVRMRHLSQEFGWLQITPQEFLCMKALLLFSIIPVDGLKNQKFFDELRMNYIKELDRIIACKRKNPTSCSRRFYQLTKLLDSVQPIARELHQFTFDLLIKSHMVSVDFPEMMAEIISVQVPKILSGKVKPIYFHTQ

[16] = test system: DHT-stimulated RWPE-1 cells; test: qRT-PCR mRNA expression in DHT-stimulated RWPE-1 cells; type: cell-based, human; details: for mRNA level of HO-1 and GPX-1: FIG. 1E
Experimental: as §5, §1

## NLRP3 siRNA: siRNA CGUGACAGUCCUUCUGGAA=tt (SEQ ID NO.: 39) and UUCCAGAAGGACUGUCACG=tt (SEQ ID NO.: 40) (3' dTdT overhangs, further chemistry not given here)
[1]
  AR level (mRNA) in NLRP3 siRNA-transfected cells: significantly increased
[1]; DHT-stimulated RWPE-1, vs GFP-transfected cells, FIG. 2C
  NLRP3 and IL-1β levels after siRNA transfection: notably suppressed
[1]; RWPE-1 cells, FIG. 2G
  NLRP3 mRNA expression after siRNA transfection: significant decrease

## mitoquinone
[2]; FIG. 7A
  serum DHT overproduction: significantly suppressed
[2]; MitoQ 25 mg/kg, Saw 100 mg/kg/day, FIG. 7E
  circulating (serum) testosterone level: significantly reduced
[3]; FIGS. 6A, 6B
  BPH-upregulated expression of NLRP3: reversed
[3]; vs BPH groups, FIGS. 5A, 5B
  intensity of 8-OHdG-positive staining: significantly lower
[4]
  ATPase-specific activity: significantly suppressed
[5]; MitoQ 25 mg/kg/day vs Saw 100 mg/kg/day
  cellular proliferation inhibiting effect compared to Saw: superior
[5]; MitoQ 5, 25 mg/kg/day, Saw 100 mg/kg/day p.o., FIGS. 4C, 4E, 4F
  overexpression of PCNA protein and mRNA: clearly suppressed
[6]
  intracellular ROS generation in prostate cells: significantly suppressed
[7]; FIG. 5D
  mRNA level of HO-1, SOD1, and PGC1α: upregulated
[7]; FIG. 6C
  increased mRNA level of PYCARD and IL-1β: repressed
[7]; FIGS. 7B, 7C
  mRNA level of 5α-reductase 2, AR, and SRC-1: downregulated
[8]; FIG. 1G
  SOD2 and catalase protein expression: significantly increased
[8]; FIG. 3C
  PSA protein expression: considerably suppressed
[9]; FIG. 1D
  overexpression of 8OHdG (oxidative stress indicator): notably suppressed
[9]; FIG. 2A
  NLRP3 protein expression: significantly suppressed
[9]; FIG. 3A
  AR overexpression (protein): clearly suppressed
[10]
  thickened epithelium of prostate tissue: significantly reduced
[1]
  AR level (mRNA) in NLRP3 siRNA-transfected cells: notably downregulated
  NLRP3 level (mRNA) in AR siRNA-transfected cells: significantly suppressed
RWPE-1 cells
  concentration of MitoQ suppressing RWPE-1 cell proliferation (viability): ≥ 25 μM
[11]; FIGS. 6D, 6E
  overexpression of NLRP3, pro-caspase 1, cleaved caspase 1, and IL-1β proteins: suppressed
[11]; vs BPH groups, FIG. 5E
  expression of catalase and SOD2 (protein): significantly higher
[11]; vs BPH groups, FIG. 7D
  protein expression of PSA: decreased
[12]
  concentration of MitoQ significantly suppressing DHT-stimulated RWPE-1 cell proliferation: ≥ 6.25 μM
[13]
  ATP level: significantly reduced
[14]
  excessive production of mtROS: suppressed
[15]; MitoQ 5, 25 mg/kg/day, Saw 100 mg/kg/day p.o., vs BPH, FIG. 4B
  prostate weight (PW/BW ratio): significant reduction
[15]; MitoQ 5 and 25 mg/kg p.o., four weeks, FIG. 4A
  prostate size: reduced
AR (PDB ID: 2AMA)
  difference between the affinity values of DHT and MitoQ for AR: ~1 kcal/mol
[16]; DHT-stimulated RWPE-1, 100 μM MitoQ
  mRNA level of HO-1 and GPX-1: significantly increased
[16]; DHT-stimulated RWPE-1, MitoQ 25, 50, 100 μM, FIG. 2B
  mRNA expression of NLRP3, PYCARD, and IL-1β: significantly reduced
[16]; DHT-stimulated RWPE-1, MitoQ 25, 50, 100 μM, FIG. 3B
  mRNA level of AR, 5α-reductase 2, and PSA: notably inhibited
[16]; DHT-stimulated RWPE-1, MitoQ treatment
  mRNA level of HO-1 and GPX-1: normalized

## AR siRNA: siRNA CUCUCUUCACAGCCGAAGA=tt (SEQ ID NO.: 41) and UCUUCGGCUGUGAAGAGAG=tt (SEQ ID NO.: 42) (3' dTdT overhangs, further chemistry not given here)
[1]
  NLRP3 level (mRNA) in AR siRNA-transfected cells: significantly enhanced
